# Where “and” joins values, the source holds several entries; their conditions need not be identical. Identical values can stand only once.
# Columns and labels:
# Type in all cases: in vivo
# [1] = test system: Swiss mice CD1; experiment: forced swim test, Alverine and fluoxetine administered intraperitoneally to mice (Example 3, second test); details: for immobility time, individual animals / immobility time, Mean: 30 minutes prior to the test; for immobility time, Mean: n = 10
# Procedure: These are Swiss mice CD1 (CD-1® (ICR) IGS (Charles River France) weighing between 25 and 35 g. […] They are placed 15 to 20 per cage, over an acclimatising period of at least 5 days prior to the tests. They are identified by marking on the fur. […] The mice were divided into two test comprising six groups of 10 mice each. For the second test: The first group is the control group: it is treated only by excipient. […] The doses are expressed in terms of free active substances. The test substances are prepared extemporaneously in a saline solution. The treatments are co-administered 30 minutes prior to the test in a coded and random order intraperitoneally with a volume of 10 ml/kg (5 ml/kg for each administration). […] The total duration of immobility is measured over the last four minutes of the test, six minutes in total. A mouse is deemed immobile when it ceases struggling and floats in the water without movements superfluous to those allowing it to keep its head above water. A drop in immobility time is the reflection of an antidepressant effect. The forced swim test is a pre-clinical behavioural model, which has good predictive validity and is widely employed for determining the efficacy of antidepressant medications (Borsini and Meli, 1988). The results are expressed in total duration of immobility in seconds and as a percentage of variation of the total duration of immobility calculated from the average value of the control group. The statistical significance between two treated groups is determined by using a Student test (P<0.05) The data are analysed using <<SigmaStat>> software.
# [2] = test system: Swiss mice CD1; experiment: forced swim test, Alverine administered intraperitoneally to mice (Example 1); details: Imipramine 10 mg/kg intraperitoneally
# Procedure: To establish the advantages according to the present invention a study was carried out to 50 mice. They were divided into 5 groups of 10 mice each. These are Swiss mice CD1 (CD-1® (ICR) IGS (Charles River France) weighing between 25 and 35 g.
# They were placed in a room at a temperature of between 19.5 and 24.5° C. and a relative humidity of 45 to 65% with a light/dark cycle of 12 h, ad libitum access to filtered water and pellets of laboratory-standard food.
# They are placed 15 to 20 per cage, over an acclimatising period of at least 5 days prior to the tests. They are identified by marking on the fur.
# The substance to be tested is Alverine citrate (Sigma, in the form of dry powder, with a salt/base ratio of 1.68) comparatively to imipramine chlorhydrate (Sigma, in the form of dry powder, with a salt/base ratio of 1.13).
# The first group is the control group: it is treated only by excipient.
# The second group is treated with Alverine at a dose of 3 mg/kg
# The third group is treated with Alverine at a dose of 10 mg/kg
# The fourth group is treated with Alverine at a dose of 30 mg/kg
# The fifth group is treated with imipramine (tricyclic antidepressant) at a dose of 10 mg/kg
# The doses are expressed in terms of free active substances. The substances are prepared extemporaneously in the excipient. The treatments are administered 30 minutes prior to the test in a coded and random order intraperitoneally with a volume of 10 ml/kg.
# Thirty minutes following administration the five groups of mice are subjected to the forced swim test, in a vertical Plexiglas cylinder (height 24 cm, diameter 9 cm) containing water (height 6 cm, temperature 18-22° C.). The total duration of immobility is measured over the last four minutes of the test, six minutes in total. A mouse is deemed immobile when it ceases struggling and floats in the water without movements superfluous to those allowing it to keep its head above water. A drop in immobility time is the reflection of an antidepressant effect.
# The forced swim test is a pre-clinical behavioural model, which has good predictive validity and is widely employed for determining the efficacy of antidepressant medications (Borsini and Meli, 1988).
# The results are expressed in total duration of immobility in seconds and as a percentage of variation of the total duration of immobility calculated from the average value of the control group.
# The statistical significance between the treated groups and the control group is determined by a Dunnett test using the residual variation according to analysis of the variance (P<0.05). The data are analysed using <<SigmaStat>> software.
# [3] = test system: Swiss mice CD1; experiment: forced swim test, Alverine administered orally to mice (Example 2)
# [4] = test system: Swiss mice CD1; experiment: forced swim test, Alverine and imipramine administered intraperitoneally to mice (Example 3, first test); set-up: key to Dunnett test vs control group: * indicates a significant difference for p < 0.05 (Dunnett test); ns indicates an insignificant result; details: for immobility time, individual animals / immobility time, Mean: 30 minutes prior to the test; for immobility time, Mean: n = 10
# Procedure: These are Swiss mice CD1 (CD-1® (ICR) IGS (Charles River France) weighing between 25 and 35 g. […] They are placed 15 to 20 per cage, over an acclimatising period of at least 5 days prior to the tests. They are identified by marking on the fur. […] The mice were divided into two test comprising six groups of 10 mice each. For the first test: The first group is the control group: it is treated only by excipient. The second group is treated with imipramine at a dose of 3 mg/kg The third group is treated with Alverine at a dose of 3 mg/kg The fourth group is treated with Alverine at a dose of 3 mg/kg and imipramine at a dose of 3 mg/kg The fifth group is treated with imipramine at a dose of 10 mg/kg […] The doses are expressed in terms of free active substances. The test substances are prepared extemporaneously in a saline solution. The treatments are co-administered 30 minutes prior to the test in a coded and random order intraperitoneally with a volume of 10 ml/kg (5 ml/kg for each administration). Thirty minutes following administration the six groups of mice are subjected to the forced swim test, in a vertical Plexiglas cylinder (height 24 cm, diameter 9 cm) containing water (height 6 cm, temperature 18-22° C.). The total duration of immobility is measured over the last four minutes of the test, six minutes in total. A mouse is deemed immobile when it ceases struggling and floats in the water without movements superfluous to those allowing it to keep its head above water. A drop in immobility time is the reflection of an antidepressant effect. The forced swim test is a pre-clinical behavioural model, which has good predictive validity and is widely employed for determining the efficacy of antidepressant medications (Borsini and Meli, 1988). The results are expressed in total duration of immobility in seconds and as a percentage of variation of the total duration of immobility calculated from the average value of the control group. The statistical significance between two treated groups is determined by using a Student test (P<0.05) The data are analysed using <<SigmaStat>> software.
# [5] = Fluoxetine 3 mg/kg intraperitoneally
# [6] = Fluoxetine 10 mg/kg intraperitoneally
# [7] = tested alone at 3 mg/kg intraperitoneally
# [8] = Imipramine 3 mg/kg intraperitoneally
# [9] = Imipramine 10 mg/kg intraperitoneally
compound,measurement,setting,value
"CNCCC(Oc1ccc(C(F)(F)F)cc1)c1ccccc1 (stereo not drawn) [Fluoxetine, fluoxetine]",% of variation of immobility time vs control group,[1]; [5],−30%
same,Dunnett test vs control group,[1]; [5],* (* indicates a significant difference for p < 0.05 (Dunnett test))
same,"immobility time, individual animals",[1]; [5],149 s and 18 s and 101 s and 99 s and 10 s and 100 s and 103 s
same,"immobility time, Mean",[1]; [5],105.6 s
same,% of variation of immobility time vs control group,[1]; [6],−45%
same,Dunnett test vs control group,[1]; [6],* (* indicates a significant difference for p < 0.05 (Dunnett test))
same,"immobility time, individual animals",[1]; [6],76 sec (2×) and 83 sec and 105 sec and 90 sec and 28 sec and 88 sec and 34 sec
same,"immobility time, Mean",[1]; [6],82.7 s
same,decrease in the duration of immobilisation as compared to the control group (in words),[1]; [7],statistically significant decrease
"CN(C)CCCN1c2ccccc2CCc2ccccc21 [Imipramine, imipramine]",% of variation of immobility time vs control group,[2],−62%
same,Dunnett test vs control group,[2],* (* indicates a significant difference for p < 0.05 (Dunnett test))
same,"immobility time, individual animals",[2]; 30 minutes prior to the test,67 s and 70 s and 1 s and 89 s and 3 s and 9 s and 38 s and 99 s and 53 s and 65 s
same,"immobility time, Mean","[2]; 30 minutes prior to the test, N = 10",49.4 s
same,% of variation of immobility time vs control group,[3]; Imipramine 30 mg/kg orally,−58%
same,Dunnett test vs control group,[3]; Imipramine 30 mg/kg orally,* (* indicates a significant difference for p < 0.05 (Dunnett test))
same,immobility time compared with mice treated with Alverine,[3]; Imipramine 30 mg/kg orally vs Alverine 100 mg/kg orally,comparable to the mice of the fourth group treated at 100 mg/kg of Alverine
same,"immobility time, individual animals","[3]; Imipramine 30 mg/kg orally, 60 minutes prior to the test",52 s and 64 s and 55 s and 5 s and 75 s and 67 s and 70 s and 89 s and 45 s and 96 s
same,"immobility time, Mean","[3]; Imipramine 30 mg/kg orally, 60 minutes prior to the test, N = 10",61.9 s
same,% of variation of immobility time vs control group,[4]; [8],−24%
same,Dunnett test vs control group,[4]; [8],ns
same,"immobility time, individual animals",[4]; [8],121 sec (2×) and 70 sec and 74 sec and 122 sec and 93 sec and 94 sec and 141 sec and 133 sec and 123 sec
same,"immobility time, Mean",[4]; [8],109.2 s
same,% of variation of immobility time vs control group,[4]; [9],−67%
same,Dunnett test vs control group,[4]; [9],* (* indicates a significant difference for p < 0.05 (Dunnett test))
same,"immobility time, individual animals",[4]; [9],0 s and 62 s and 38 s and 54 s and 45 s and 92 s and 26 s and 77 s and 80 s and 4 s
same,"immobility time, Mean",[4]; [9],47.8 s
same,decrease in the duration of immobilisation as compared to the control group (in words),[4]; [7],statistically insignificant decrease

# Source: patent US20050065218A1, “Utilization of alverine, alone or in combination with tricyclic antidepressant or a specific serotonin reuptake inhibitor for the treatment of depression” (priority 2003, published 2005)
